Measured values from patent US4795814A, “Process for preparing novel dihydropyridine derivatives” (Otsuka Pharmaceutical Co., Ltd., priority 1984, dated 1989).
Where two headings read alike, the source gives them in different places.

Columns and labels:
[1] = biological target: T1, Calmodulin-dependent cyclic-AMP phosphodiesterase (EC 3.1.4.17) (Bos taurus, UniProt P14100); assay: Pharmacological Test-2 (2): Cyclic-AMP phosphodiesterase inhibitory activity (EGTA in place of CaCl2); format: biochemical, bovine
T1 construct: An enzyme substance isolated from the heart of bovine and purified partially; from tissue; host or cells: bovine heart
Excerpt: (§1) (2) Calmodulin-dependent cyclic-AMP phosphodiesterase (EC 3.1.4.17): An enzyme substance isolated from the heart of bovine and purified partially by a method of modified version of the disclosure in H. C. Ho, T. S. Teo, et al.: "Biochim. Biophys. Acta", 429, 461 (1976).
(§2) (3) 5'-Nucleotidase (EC 3.1.3.5): Grade IV substance (isolated from Crotalus adamanteus venom) manufactured by Sigma & Co.
(§3) (4) Others: Remainder of the reagents used in the test were those of reagent grade chemicals manufactured by Wako Pure-Chemical Industries, Ltd.
(§4) Calmodulin inhibitory activity of each of the test compounds was measured by a method of modified version of the disclosure in T. S. Teo and T. H. Wang: "J. Bio. Chem.", 248, 588 (1973).
(§5) (3) 5'-Nucleotidase: One unit thereof hydrolyzes 1.0 micromole of inorganic phosphorus from adnosine 5'-monophosphate per minute at pH 9.0 at 37° C.
(§6) 40 mM of Imidazol, 20 mM of MgCl2, 20 mM of CaCl2, 0.008 […] of cyclic-AMP phosphodiesterase, 1.0 unit of calmodulin, 0.2 unit of 5'-nucleotidase and 1.0 ml of 10 mM-tris(hydroxymethyl)aminomethane/HCl buffer solution (pH 7.0) containing 0.5 mM of cyclic-AMP were mixed together, and reacted at 30° C. for 30 minutes. Each of the test compounds were dissolved in methanol or N,N-dimethylformamide as the solvent, provided that the quanitty of the solvent was not exceed 2% of the total amount of the mixture. After the reaction was completed, the reaction mixture was ice-cooled, and 0.5 ml each of aqueous solutions of 16.5%-trichloroacetic acid, 1%-thiourea, 3%-ammonium ferrous sulfate were respectively added to the reaction mixture. Further, 0.15 ml of 4.4%-ammonium molibdate solution was added to the mixture and the whole of the mixture was stirred, and was centrifuged at 3,000 r.p.m. for 10 minutes. Then, the centrifuged mixture was allowed to stand at a room temperature for 20 minutes. The OD660 nm (optical density at 660 nm) was measured.
(2) Cyclic-AMP phosphodiesterase inhibitory activity:
The reaction was conducted by a method similar to that described in (1) as mentioned above, except that 1 mM of EGTA [ethylene glycol-bis(β-aminoethyl ether)-N,N-tetraacetic acid] was used in place of 20 mM of CaCl2. The reaction was conducted for 3 hours.

[2] = biological target: T2, Calmodulin-cyclic-AMP phosphodiesterase (Bos taurus, UniProt P14100+P62157); assay: Pharmacological Test-2 (1): Calmodulin-cyclic-AMP phosphodiesterase inhibitory activity (with calmodulin, CaCl2); format: biochemical, bovine; conditions: in the presence of calmodulin, CaCl2, pH 7.0, 30° C., 30 minutes
T2 construct: An enzyme substance isolated from the heart of bovine and purified partially; which was isolated from the brain of bovine, and purified so as to be considered as a single substance; from tissue; host or cells: bovine heart (phosphodiesterase); the calmodulin is a bovine brain product of Amano & Co
Excerpt: (1) Calmodulin: A calmodulin product manufactured by Amano & Co., which was isolated from the brain of bovine, and purified so as to be considered as a single substance with respect to SDS-page (polyacrylamide gel electrophoresis) method.
as §1, §2, §3, §4
(2) Calmodulin: One unit thereof stimulates 0.015 activated unit of cyclic-AMP phosphodiesterase to 50% of the maximum activity of the enzyme.
as §5
(3) Reactions in the tests (1) Calmodulin-cyclic-AMP phosphodiesterase inhibitory activity:
as §6

[3] = tested on: SHR-rats (spontaneously hypertensive rats); assay: Pharmacological Test-1: vasodilative effect, systolic blood pressure of SHR-rats by tail cuff method after oral administration; format: in vivo; conditions: 30 mg/kg p.o.
Method: Vasodilative effects of the dihydropyridine derivatives of the present invention were determined by measuring the systolic blood pressures of test animals before and after the administration of test compound.
Systolic blood pressures and heart beat of SHR-rats (spontaneously hypertensive rats) were determined by a "tail cuff method". Thus the test animal was placed in a thermostat chamber (Type: FR-12RS, manufactured by Isuze & Co.) and was warmed at 40° C. for 15 minutes so as to vasodilate the tail arteria, the systolic blood pressures were measured by an electro sphygmomanometer (Type: PE-300, manufactured by Narco-Biosystems, Inc.) and recorded by an ink-writing recorder (Type: RECTIHORIZ 8s, manufactured by San-Ei Instrument & Co.). The experiments were conducted under non-anesthetized and semi-confinement conditions. The test compound was orally administered forcedly by using a sonde for oral administration. The test compound was suspended in 0.15%-gum arabic powder aqueous solution so as to make the quantity of the test compound to 2.5 ml/kg. The test animal was not fasted, and the systolic blood pressures (mm-Hg) were measured before the administration (hereinafter referred to as "PRE") and after the administration (8, 24, 30, 48, 54 and 72 hours after the administration) of the test compound. The data of systolic blood pressure measured before the administration are shown in absolute value of mmHg, and the data measured after the administration are shown in the differences from the absolute values.

[4] = 1 mM EGTA in place of CaCl2, 3 hours, read-out: Cyclic-AMP phosphodiesterase IC50 (converted)

T1 sequence (P14100 1-514 isoform P14100-2): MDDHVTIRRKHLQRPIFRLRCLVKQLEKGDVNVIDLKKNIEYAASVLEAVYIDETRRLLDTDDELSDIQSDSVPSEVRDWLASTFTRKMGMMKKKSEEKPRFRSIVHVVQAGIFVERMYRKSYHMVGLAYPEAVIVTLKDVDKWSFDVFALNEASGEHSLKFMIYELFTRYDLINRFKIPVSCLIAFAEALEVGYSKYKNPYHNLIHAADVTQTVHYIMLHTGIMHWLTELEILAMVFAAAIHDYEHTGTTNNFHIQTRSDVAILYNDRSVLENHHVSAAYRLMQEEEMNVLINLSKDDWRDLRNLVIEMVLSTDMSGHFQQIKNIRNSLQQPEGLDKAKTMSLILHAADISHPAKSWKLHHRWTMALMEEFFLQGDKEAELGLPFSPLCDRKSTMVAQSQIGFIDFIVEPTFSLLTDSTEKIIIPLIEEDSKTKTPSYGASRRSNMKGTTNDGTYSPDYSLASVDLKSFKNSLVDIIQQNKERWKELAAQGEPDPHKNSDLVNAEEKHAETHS

COC(=O)C1=C(C)NC(C)=C(C(=O)OC/C=C/c2ccc(OC(C)=O)cc2)C1c1cccc([N+](=O)[O-])c1 (stereo not drawn) [Example 14]
IC50 [1, 4]: 98.7 µM

COC(=O)C1=C(C)NC(C)=C(C(=O)OC/C=C/c2ccc(O)cc2)C1c1cccc([N+](=O)[O-])c1 (stereo not drawn) [Test Compound 1, Methyl 3-(4-hydroxyphenyl)-2(E)-propenyl 1,4-dihydro-2,6-dimethyl-4-(3-nitrophenyl)pyridine-3,5-dicarboxylate]
IC50 [1, 4]: 129 µM
IC50 [2]: 8830 nM

COC(=O)C1=C(C)NC(C)=C(C(=O)OC/C=C/c2ccccc2)C1c1cccc([N+](=O)[O-])c1 (stereo not drawn) [Test Compound 2, Methyl 3-phenyl-2(E)-propenyl 1,4-dihydro-2,6-dimethyl-4-(3-nitrophenyl)pyridine-3,5-dicarboxylate]
IC50 [1, 4]: > 223 µM

COC(=O)C1=C(C)NC(C)=C(C(=O)OC/C=C/C=C/c2ccc(O)cc2)C1c1cccc([N+](=O)[O-])c1 (stereo not drawn) [Test Compound 3, Methyl 5-(4-hydroxyphenyl)-2(E),4(E)-pentadienyl 1,4-dihydro-2,6-dimethyl-4-(3-nitrophenyl)-pyridine-3,5-dicarboxylate]
IC50 [1, 4]: > 204 µM

COC(=O)C1=C(C)NC(C)=C(C(=O)OC/C=C/c2ccc(O)c(OC)c2)C1c1cccc([N+](=O)[O-])c1 (stereo not drawn) [Test Compound 7, Methyl 3-(3-methoxy-4-hydroxyphenyl)-2(E)-propenyl 1,4-dihydro-2,6-dimethyl-4-(3-nitrophenyl)pyridine-3,5-dicarboxylate]
IC50 [1, 4]: 174 µM

COC(=O)C1=C(C)NC(C)=C(C(=O)OC/C=C/c2ccc(OC)cc2)C1c1cccc([N+](=O)[O-])c1 (stereo not drawn) [Test Compound 8]
IC50 [1, 4]: > 209 µM

COC(=O)C1=C(C)NC(C)=C(C(=O)OC/C=C/c2ccc(O)c(Cl)c2)C1c1cccc([N+](=O)[O-])c1 (stereo not drawn) [Test Compound 9, Methyl 3-(3-chloro-4-hydroxyphenyl)-2(E)-propenyl 1,4-dihydro-2,6-dimetyyl-4-(3-nitrophenyl)pyridine-3,5-dicarboxylate]
IC50 [1, 4]: > 200 µM

COC(=O)C1=C(C)NC(C)=C(C(=O)OCC#Cc2ccc(O)cc2)C1c1cccc([N+](=O)[O-])c1 (stereo not drawn) [Test Compound 10, Methyl 3-(4-hydroxyphenyl)-2-propynyl 1,4-dihydro-2,6-dimetyyl-4-(3-nitrophenyl)-pyridine-3,5-dicarboxylate]
IC50 [1, 4]: 28.1 µM
IC50 [2]: 1690 nM

COC(=O)C1=C(C)NC(C)=C(C(=O)OC/C=C/c2ccccc2O)C1c1cccc([N+](=O)[O-])c1 (stereo not drawn) [Test Compound 11, Methyl 3-(2-hydroxyphenyl)-2(E)-propenyl 1,4-dihydro-2,6-dimethyl-4-(3-nitrophenyl)-pyridine-3,5-dicarboxylate]
IC50 [1, 4]: 26.9 µM

COC(=O)C1=C(C)NC(C)=C(C(=O)OC/C=C/c2ccc(O)cc2)C1c1ccccc1C(F)(F)F (stereo not drawn) [Test Compound 12]
IC50 [1, 4]: > 205 µM

COC(=O)C1=C(C)NC(C)=C(C(=O)OCC/C=C/c2ccc(SC)cc2)C1c1cccc([N+](=O)[O-])c1 (stereo not drawn) [Test Compound 13, Methyl 4-(4-methylthiophenyl)-3(E)-butenyl 1,4-dihydro-2,6-dimethyl-4-(3-nitrophenyl)-pyridine-3,5-dicarboxylate]
IC50 [1, 4]: 0.452 µM
IC50 [2]: 122 nM

COC(=O)C1=C(C)NC(C)=C(C(=O)OC/C=C/c2ccc(O)cc2)C1c1ccccc1 (stereo not drawn) [Test Compound 15, Methyl 3-(4-hydroxyphenyl)-2(E)-propenyl 1,4-dihydro-2,6-dimethyl-4-phenylpyridine-3,5-dicarboxylate]
IC50 [1, 4]: 76.3 µM

COC(=O)C1=C(C)NC(C)=C(C(=O)OC/C=C/c2ccc(O)cc2)C1c1ccccc1C (stereo not drawn) [Test Compound 16, Methyl 3-(4-hydroxyphenyl)-2(E)-propenyl 1,4-dihydro-2,6-dimethyl-4-(2-methylphenyl)-pyridine-3,5-dicarboxylate]
IC50 [1, 4]: 134 µM

COC(=O)C1=C(C)NC(C)=C(C(=O)OC/C=C/c2cccc(O)c2)C1c1ccccc1[N+](=O)[O-] (stereo not drawn) [Test Compound 17, Methyl 3-(3-hydroxyphenyl)-2(E)-propenyl 1,4-dihydro-2,6-dimethyl-4-(2-nitrophenyl)-pyridine-3,5-dicarboxylate]
IC50 [1, 4]: 53 µM
IC50 [2]: 1940 nM

COC(=O)C1=C(C)NC(C)=C(C(=O)OCCN(C)Cc2ccccc2)C1c1cccc([N+](=O)[O-])c1 (stereo not drawn) [Test Compound 18, Methyl 2-(N--methyl-N--benzylamino)ethyl 1,4-dihydro-2,6-dimetyyl-4-(3-nitrophenyl)pyridine-3,5-dicarboxylate, reference compound]
IC50 [1]: 27.1 µM

methyl 4-[(1-ethoxy)ethoxy]cinnamyl 1,4-dihydro-2,6-dimethyl-4-(3-nitrophenyl)pyridine-3,5-dicarboxylate [Example 1]
Blood pressure after the administration, difference from the PRE value ([3]; 24 hours): -41.0 mm-Hg
Blood pressure after the administration, difference from the PRE value ([3]; 30 hours): -52.0 mm-Hg
Blood pressure after the administration, difference from the PRE value ([3]; 48 hours): -26.5 mm-Hg
Blood pressure after the administration, difference from the PRE value ([3]; 54 hours): -19.8 mm-Hg
Blood pressure after the administration, difference from the PRE value ([3]; 72 hours): -12.5 mm-Hg
